Results published in patent US11318214B2, “Iron oxide mesoporous microparticle drug carrier” (National Guard Health Affairs, priority 2020, dated 2022).

What was measured:
[1] = Drug loading onto IO-MMMs (UV-vis); assay type: physicochemical; details: for amount of drug loaded / loading efficiency: maximal loading onto IO-MMMs; for loading efficiency: absorption spectroscopy
Description: 1 mL aqueous dispersion of IO-MMMs (1.0 mg/mL) and aqueous drug solutions (250 μg/mL) were gently shaken on a rotary shaker for 36 h to enable maximal drug loading. The particle dispersions were then isolated via centrifugation (4500 rpm, 10 min), washed repeatedly with water until no drug was detected in the supernatant by UV-vis, and finally redispersed in water to form stable aqueous dispersions of drug@IO-MMMs. In case of Tam and Daun loading, Tam was first loaded followed by Daun to afford Daun/Tam@IO-MMMs (165 μg/mL Tam; 235 μg/mL Daun). Loading efficiencies were determined by UV-Vis spectroscopy as depicted below. […] The loading efficiency was calculated as: Loading Efficiency=(W1/W0)×100, where W1 is the amount of drug loaded onto the particles, and W0 is the amount of drug in the initial solution. The amount of drug loaded onto IO-MMMs was calculated from the difference between the initial drug concentration and the drug concentration left in the supernatant.

[2] = In vitro drug release in PBS buffer at two pH values; assay type: physicochemical; details: from IO-MMM, slightly acidic pH of 4.5, after 48 h, 37° C.
Description: In a typical study, 5 mg of drug@IO-MMMs were suspended in 1 mL PBS buffer at two different pH values (pH=7.4 and pH=4.5) and gently rotated at 37° C. in an oven provided with a precise control in the temperature within 0.01° C. The concentration of drugs in the supernatant was determined at fixed time intervals by UV-vis spectroscopy. At specific time points, supernatant aliquots obtained by centrifugation were taken from each tube, measured and returned to their respective tubes after UV-vis measurements. The drug concentration could be directly calculated from the measured absorbance. Triplicate aliquots were run for each time interval, and average values plotted. The percent drug release was calculated using the equation below: % Drug Release=(Abs(t) of released drug/Abs(t0))×100.

[3] = estimated; cited from earlier work

| amount of drug loaded [1] | total drug released [2] | loading efficiencies depending on the initial drug concentrations used ([1]; onto IO-MMMs) | SMILES | molecular size [3] [nm] | loading efficiency [1] [%] |
| --- | --- | --- | --- | --- | --- |
| ≤ 227 μg/mg of particles | about 40% | – | COc1cccc2c1C(=O)c1c(O)c3c(c(O)c1C2=O)C[C@@](O)(C(=O)CO)C[C@@H]3O[C@H]1C[C@H](N)[C@H](O)[C@H](C)O1 [Dox, Doxorubicin] | ~1.37 | – |
| ≤ 165 μg/mg of particles | ~80% | 66-83% | CC/C(=C(\c1ccccc1)c1ccc(OCCN(C)C)cc1)c1ccccc1 [Tam, Tamoxifen] | – | ≤ 83 |

| SMILES | amount of drug loaded [1] | total drug released [2] | loading efficiencies depending on the initial drug concentrations used ([1]; onto IO-MMMs) | molecular size [3] [nm] | loading efficiency [1] [%] |
| --- | --- | --- | --- | --- | --- |
| COc1cccc2c1C(=O)c1c(O)c3c(c(O)c1C2=O)C[C@@](O)(C(C)=O)C[C@@H]3O[C@H]1C[C@H](N)[C@H](O)[C@H](C)O1 [Daun, Daunorubicin] | ≤ 235 μg/mg of particles | ~50% | – | – | ≤ 94 |
